Holding throughout (test): NCI-60 cell line screen, 48 h
Experiment [1] concerns M14 melanoma.
Experiment [2] relates to OVCAR-3 ovarian.
Experiment [3] has as its system SF-539 CNS.
Experiment [4] relates to K-562 leukemia.
The subject of experiment [5] is SK-OV-3 ovarian.
For experiment [6], the system named is ACHN renal.
For experiment [7], the system named is SNB-75 CNS.
In experiment [8] the test system is LOX IMVI melanoma.
The subject of experiment [9] is UACC-257 melanoma.

The values below come from PubChem BioAssay (NCI).

Molecules are shown by their SMILES.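 Dose response: 5 concentrations. Exposure: 48 h. Format: 96-well plates. Endpoint: linear interpolation; highest concentration if not reached. At the GI50, growth is halved. The concentration for full growth arrest is given as TGI.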

`CN(C)/C=C/c1ccnc2c1C(=O)c1ccccc1C2=O`: the TGI in experiment [1] is 4.16 µM; in [2], greater than 100 µM; in experiment [3] it was 39.5 µM; in [4], greater than 47.1 µM; in [5], greater than 100 µM; in experiment [6], greater than 50.7 µM. Also, the TGI in [7] worked out at 16.1 µM; in experiment [8], 20.7 µM; in experiment [9], 6.19 µM.
Regarding `CC(C)(Oc1ccc(C2C[C@H]2Cl)cc1)C(=O)O` (some centres undefined), the TGI in experiment [2], in experiment [3], in experiment [4], in experiment [5], in experiment [7] and in experiment [8] was greater than 100 µM throughout. Moreover, the TGI in experiment [9] was greater than 100 µM.
With `C=C(Cl)C(Cl)(CBr)CCC(Cl)C(C)C` (centres undefined), the TGI was 42.6 µM in experiment [1]; 3.45 µM in [2]; 2.59 µM in experiment [3]; greater than 100 µM in experiment [4]; greater than 89.5 µM in experiment [5]; 9.52 µM in experiment [6]. Further, the TGI in experiment [7] amounted to 5.66 µM; in experiment [8], 26.2 µM; in experiment [9], 6.02 µM.
Regarding `CC1=C2CC3=C(C)C(=O)O[C@H]3C[C@@H](C)[C@@H]2CC1`, the TGI in experiment [1], in experiment [2], in [4], in experiment [5], in experiment [6] and in experiment [7] was greater than 100 µM each time. The TGI in experiment [8] and in experiment [9] was greater than 100 µM in each case.
As to `O=C(CSCC(=O)N/N=C\c1cc(Br)cc(Br)c1O)N/N=C\c1cc(Br)cc(Br)c1O`, the TGI in experiment [1] is 34.8 µM; in experiment [2] it was 93.8 µM; in [3] it was 78.8 µM; in [4], 80.1 µM; in [5], greater than 100 µM; in [6] it was 31.4 µM. The TGI in [7] is greater than 100 µM; in [8], 34.1 µM; in experiment [9], 62 µM.
With `O=C1N[C@@H](c2c[nH]c3ccc(Br)cc23)C(=O)N[C@H]1c1c[nH]c2ccc(Br)cc12`, the TGI in [1] is 21.2 µM; in [2], 28.4 µM; in experiment [3], 18.9 µM; in experiment [4] it was 18.9 µM; in experiment [5] it was 31.1 µM; in experiment [6] it was 15.8 µM. Moreover, the TGI in experiment [7] was 9.03 µM; in experiment [8] it was 20.9 µM; in [9] it was 26.8 µM.
Take `COc1c(-c2ccc3c(c2)OCO3)oc2cc3c(c(OC)c2c1=O)OCO3`: the TGI in [1] was greater than 100 µM; in experiment [2], 74.9 µM; in [3], 34.8 µM; in [4], greater than 100 µM; in [5], 35.7 µM; in [6] it was 63 µM. Also, the results for the TGI in [7], in [8] and in [9] were 44.9 µM, 32.1 µM and greater than 100 µM, respectively.
Regarding `C[Si](C)(C)C1=C2C(=O)c3ccccc3C(=O)C2=C([Si](C)(C)C)[C@@H]2CCCC[C@H]12`, the TGI in experiment [1], in experiment [2], in experiment [3], in [4], in experiment [5] and in experiment [6] was greater than 100 µM in each case. In addition, the TGI in [8] and in experiment [9] was greater than 100 µM in each case.
Consider `CC(=S)NC1C(Oc2ccc3c(C)cc(=O)oc3c2)OC(CO)C(O)C1O` (centres undefined), for which the TGI in experiment [2], in [3], in experiment [4], in experiment [5], in experiment [6] and in experiment [7] was greater than 100 µM each time. Further, the TGI in experiment [8] and in [9] was greater than 100 µM each time.
For `c1ccc(C2(c3cc4ccccc4[nH]3)OCCO2)cc1`, the TGI in [1], in experiment [2], in [3], in experiment [4], in experiment [5] and in experiment [6] was greater than 100 µM each time. Besides, the TGI in [7] is greater than 100 µM; in experiment [8] it was greater than 100 µM; in experiment [9], 99.8 µM.
Consider `O=C(O)CCCCCNC(=O)CCC(CN(CC(=O)OCc1ccccc1)CC(=O)OCc1ccccc1)N(CC(=O)OCc1ccccc1)CC(=O)OCc1ccccc1` (centres undefined), for which the TGI in experiment [1] stood at 32.3 µM; in experiment [2], 33.9 µM; in experiment [3] it was 37.9 µM; in experiment [4] it was 30.6 µM; in [5], 26.1 µM; in experiment [6] it was 32 µM. In addition, the TGI was 38.3 µM in experiment [8] and 33.1 µM in [9].
On to `CN(C)CCCn1c2c(c3ccncc3c1=O)C(=O)c1ccccc1-2`, for which the GI50 is 1.6 µM in experiment [1]; 1.99 µM in [2]; 0.714 µM in [3]; 0.573 µM in [4]; 12.1 µM in experiment [5]; 0.339 µM in [6]. The values for the GI50 in [7], in [8] and in experiment [9] were 1.02 µM, 0.36 µM and 1.68 µM, respectively. Further, the TGI in experiment [1] amounted to 5.71 µM; in [2], 9.6 µM; in experiment [3], 5.95 µM; in [4], 12.3 µM; in experiment [5] it was 65 µM; in experiment [6], 10.4 µM. The TGI came to 5.88 µM in [7], 4.95 µM in [8] and 5.22 µM in experiment [9].
As to `O=C(C(=O)n1ccc2ccccc21)c1c[nH]c2ccccc12`, the TGI in experiment [1], in experiment [2], in [3], in [4], in experiment [5] and in experiment [6] was greater than 10 µM in each case. The TGI in experiment [7], in experiment [8] and in [9] was greater than 10 µM throughout.
`Nc1c2ccccc2nc2ccc(C(=O)Nc3ccc(S(N)(=O)=O)cc3)cc12`: the TGI in experiment [1], in experiment [2], in experiment [3], in experiment [4], in experiment [5] and in [6] was greater than 100 µM each time. Also, the TGI in experiment [7], in [8] and in experiment [9] was greater than 100 µM each time.
